From patent US10765659B2, “Potentiated tulathromycin” (SEPTEOS, priority 2016, dated 2020)
Read-outs that look alike come from different tables or passages of the source.

How the values were obtained:
[1] = system: Actinobacillus pleuropneumoniae; assay: MIC measurement in solid agar medium (CLSI); format: cell-based
Protocol: (§1) “MIC” means “minimal inhibitory concentration”, which is the lowest concentration of substance at which microbial growth is no longer observed after 18 to 24 hours of contact under conditions favourable to microbial growth.
(§2) The minimum inhibitory concentration measurement tests are performed in a solid agar medium according to current international standards (CLSI standards M7-A9 January 12): dispersion of the compounds to be tested in Mueller Hinton agar. An adaptation relating to the hydrophobicity of the compounds and compositions is however necessary to disperse them in the medium: the compounds are diluted in a solvent. The compounds and compositions incorporated in the agar may be first diluted in one or more solvents (Tween® 80 diluted in water, Tween@ 80 diluted in propylene, DMSO diluted in water). The medium may be cation-adjusted. The strains are deposited on the surface of the agar with a Steers apparatus. In the examples, various methods for dissolving the products are tested in parallel to circumvent problems related to the water/solvent distribution coefficient of the molecules (antimicrobial and potentiator) as the bacteria grow only in the aqueous phase. The technical constraint will not affect the in vivo tests. The same dilution methods can be used in liquid media (microplates and tubes). The same methodology is used with fungi.
(§3) MIC measurement: The minimum inhibitory concentration measurement tests are performed in solid agar medium according to current international standards (CLSI standards), according to the protocol defined above. The compounds and compositions incorporated in the agar may be first diluted in one or more solvents (ethanol, or DMSO diluted in water).

E. coli = assay: MIC measurement in solid agar medium (CLSI); format: cell-based
Protocol: as §1, §2, §3

Enterococcus = assay: MIC measurement in solid agar medium (CLSI); format: cell-based
Protocol: as §1, §2, §3

Staphylococcus [2] = assay: MIC measurement in solid agar medium (CLSI); format: cell-based
Protocol: as §1, §2, §3

Streptococcus suis = assay: MIC measurement in solid agar medium (CLSI); format: cell-based
Protocol: as §1, §2, §3

[3] = system: strain 13043 (Actinobacillus pleuropneumoniae); assay: Growth test / bactericidal action test in liquid medium; format: cell-based; settings: strain 13043, DMSO, tulathromycin at 16 times its MIC, cineole at 1 mg/L
Protocol: (§4) Growth tests are performed in liquid medium with prior dispersion of the antibiotic booster in a suitable solvent (here DMSO).
(§5) Bacterial growth kinetics are measured in the presence of tulathromycin (at a concentration of 4 or 16 times its MIC); tulathromycin (at a concentration of 4 or 16 times its MIC) and 1,8-cineole at a mass ratio of 1:1; and tulathromycin (at a concentration of 4 or 16 times its MIC) and 1 mg of 1,8-cineole.
2 Growth Test on Strain 13043 (Actinobactllus Pleuropneumonlae) […]
diamond: control (bacteria alone in DMSO) square: tulathromycin diluted in DMSO at a concentration of 16 times its MIC triangle: tulathromycin and cineole, diluted in DMSO, tulathromycin is at a concentration of 16 times its MIC, cineole at 1 mg/L
Cross (x): cineole control, at 1 mg/L

Staphylococcus [4] = assay: Resistance test: resistant mutant colonies on Mueller Hinton plate; format: cell-based
Protocol: One hundred microlitres of a Mueller Hinton broth culture of the strain to be studied (heavy inoculum>10^10 CFU/mL) is spread on a Mueller Hinton plate containing an oil concentration equal to 0.5/1/2/4 times the MIC of tulathromycin. After 48 hours of incubation, the presence or absence of colonies likely to be resistant mutants are observed.

[5] = cat; cited from earlier work
[6] = rat; cited from earlier work
strain 13120 (E. coli) = assay: Growth test / bactericidal action test in liquid medium; format: cell-based; settings: strain 13120, DMSO, tulathromycin at 4 times its MIC, cineole at mass ratio 1:1 or 1 mg/L
Protocol: as §4, §5
1 Growth Test on Strain 13120 (Genus E. coli) […]
diamond: control (bacteria alone in DMSO) square: tulathromycin diluted in DMSO at a concentration of 4 times its MIC triangle: tulathromycin and cineole, diluted in DMSO, tulathromycin is at a concentration of 4 times its MIC, the tulathromycin/cineole mass ratio is 1:1 Cross (x): tulathromycin and cineole, diluted in DMSO, tulathromycin is at a concentration of 4 times its MIC, cineole at 1 mg/L

[7] = system: microorganisms grown in planktonic and biofilm cultures; settings: Hendry et al., J Antimicrob Chemother 2009; cited from earlier work

In the case of `CCCNC[C@]1(O)[C@H](C)O[C@@H](O[C@H]2[C@H](C)[C@@H](O[C@@H]3O[C@H](C)C[C@H](N(C)C)[C@H]3O)[C@](C)(O)C[C@@H](C)CN[C@H](C)[C@@H](O)[C@](C)(O)[C@@H](CC)OC(=O)[C@@H]2C)C[C@@]1(C)OC` [ATB], the MIC ([1]; strain 13012, DMSO) is reported as 2 µg/mL, the MIC ([1]; strain 13012, EtOH) is reported as 2 µg/mL and the MIC ([1]; strain 13030, DMSO) is reported as 0.5 µg/mL. The MIC ([1]; strain 13030, EtOH) was 0.5 µg/mL, the MIC ([1]; strain 13032, DMSO) was 0.5 µg/mL and the MIC ([1]; strain 13032, EtOH) was 0.5 µg/mL. For the same compound, the MIC ([1]; strain 13041, DMSO) was 0.5 µg/mL, the MIC ([1]; strain 13041, EtOH) was 0.5 µg/mL and the MIC ([1]; strain 13042, DMSO) was 0.5 µg/mL. For the same compound, the MIC ([1]; strain 13042, EtOH) was 0.6 µg/mL, the MIC ([1]; strain 13043, DMSO) was 0.5 µg/mL and the MIC ([1]; strain 13043, EtOH) was 0.6 µg/mL. It also gave an MIC of tulathromycin ([1]; strain 13043, value used for growth test) of 0.5 mg, an MIC ([1]; strain 13045, DMSO) of 0.5 µg/mL and an MIC ([1]; strain 13045, EtOH) of 0.6 µg/mL. It also gave an MIC (E. coli; strain 13120, DMSO) of 2 µg/mL, an MIC (E. coli; strain 13120, EtOH) of 2.7 µg/mL and an MIC of tulathromycin (E. coli; strain 13120, value used for growth test) of 2 µg/mL. It also gave an MIC (E. coli; strain 13121, DMSO) of 2 µg/mL, an MIC (E. coli; strain 13121, EtOH) of 2.7 µg/mL and an MIC (E. coli; strain 13122, DMSO) of 2 µg/mL. The MIC (E. coli; strain 13122, EtOH) was 2 µg/mL, the MIC (E. coli; strain 13123, DMSO) was 2 µg/mL and the MIC (E. coli; strain 13123, EtOH) was 2 µg/mL. It also gave an MIC (E. coli; strain 13124, DMSO) of 1.5 µg/mL, an MIC (E. coli; strain 13124, EtOH) of 2 µg/mL and an MIC (E. coli; strain 13125, DMSO) of 1.5 µg/mL. It also gave an MIC (E. coli; strain 13125, EtOH) of 1.5 µg/mL, an MIC (E. coli; strain 13126, DMSO) of 2 µg/mL and an MIC (E. coli; strain 13126, EtOH) of 2 µg/mL. For the same compound, the MIC (E. coli; strain 13128, DMSO) was 2 µg/mL, the MIC (E. coli; strain 13128, EtOH) was 2 µg/mL and the MIC (E. coli; strain 13129, DMSO) was 2.7 µg/mL. For the same compound, the MIC (E. coli; strain 13129, EtOH) was 3.6 µg/mL, the MIC (E. coli; strain 13130, DMSO) was 2 µg/mL and the MIC (E. coli; strain 13130, EtOH) was 3.6 µg/mL. The MIC (E. coli; strain 13131, DMSO) was 1.5 µg/mL, the MIC (E. coli; strain 13131, EtOH) was 1.5 µg/mL and the MIC (E. coli; strain 13132, DMSO) was 2 µg/mL. It also gave an MIC (E. coli; strain 13132, EtOH) of 2.7 µg/mL, an MIC (E. coli; strain 13133, DMSO) of 1.5 µg/mL and an MIC (E. coli; strain 13133, EtOH) of 2 µg/mL. The MIC (E. coli; strain 13134, DMSO) was 1.5 µg/mL, the MIC (E. coli; strain 13134, EtOH) was 1.5 µg/mL and the MIC (E. coli; strain 13170, DMSO) was 1.5 µg/mL. The MIC (E. coli; strain 13170, EtOH) was 2 µg/mL, the MIC (E. coli; strain 13171, DMSO) was 2.7 µg/mL and the MIC (E. coli; strain 13171, EtOH) was 3.6 µg/mL. For the same compound, the MIC (E. coli; strain 13172, DMSO) was 1.5 µg/mL, the MIC (E. coli; strain 13172, EtOH) was 1.5 µg/mL and the MIC (E. coli; strain 13173, DMSO) was 1.5 µg/mL. It also gave an MIC (E. coli; strain 13173, EtOH) of 1.5 µg/mL, an MIC (E. coli; strain 13174, DMSO) of 2 µg/mL and an MIC (E. coli; strain 13174, EtOH) of 2 µg/mL. The MIC (E. coli; strain 13175, DMSO) was 2 µg/mL, the MIC (E. coli; strain 13175, EtOH) was 3.6 µg/mL and the MIC (E. coli; strain Q54IE2, EtOH) was 0.8 µg/mL. It also gave an MIC (E. coli; strain Q96CEB, EtOH) of 1.9 µg/mL, an MIC (Enterococcus; Enterococcus strain without reference (Table 3, r6), EtOH) of 0.9 µg/mL and an MIC (Enterococcus; Enterococcus strain without reference (Table 3, r7), EtOH) of 1.7 µg/mL. It also gave an MIC (Enterococcus; strain 8152, EtOH) of 1 µg/mL, an MIC (Enterococcus; strain 8153, EtOH) of 1.42 µg/mL and an MIC (Staphylococcus [2]; strain 8146, EtOH) of 0.45 µg/mL. For the same compound, the MIC (Staphylococcus [2]; strain 8147, EtOH) was 0.45 µg/mL, the MIC (Staphylococcus [2]; strain 8148, EtOH) was 0.45 µg/mL and the MIC (Staphylococcus [2]; strain 8149, EtOH) was 0.45 µg/mL. It also gave an MIC (Staphylococcus [2]; strain 8238, EtOH) of 0.45 µg/mL, an MIC (Staphylococcus [2]; strain 12216, EtOH) of 2.53 µg/mL and an MIC (Staphylococcus [2]; strain 13218, EtOH) of 1.07 µg/mL. The MIC (Staphylococcus [2]; strain 13221, EtOH) was 1.07 µg/mL, the MIC (Streptococcus suis; strain 13092, DMSO) was 1.1 µg/mL and the MIC (Streptococcus suis; strain 13092, EtOH) was 1.1 µg/mL. For the same compound, the “Bacterial growth kinetics / number of bacteria (FIG. 2)” value [3] was “bacteriostatic”, the Development of mutants (Staphylococcus [4]; S. aureus (strain 8147), summary of Table 4) was “countless mutants” and the “Colonies likely to be resistant mutants after 48 hours” value (shortened to “Colonies likely”) (Staphylococcus [4]; strain 8146, ethanol solvent, 0.5 times the MIC of tulathromycin) was “overgrown”. The “Colonies likely” value (Staphylococcus [4]; strain 8146, ethanol solvent, 1 times the MIC of tulathromycin) was “overgrown”, the “Colonies likely” value (Staphylococcus [4]; strain 8146, ethanol solvent, 2 times the MIC of tulathromycin) was “overgrown” and the “Colonies likely” value (Staphylococcus [4]; strain 8146, ethanol solvent, 4 times the MIC of tulathromycin) was 0. For the same compound, the “Colonies likely” value (Staphylococcus [4]; strain 8147, ethanol solvent, 0.5 times the MIC of tulathromycin) was “overgrown”, the “Colonies likely” value (Staphylococcus [4]; strain 8147, ethanol solvent, 1 times the MIC of tulathromycin) was “overgrown” and the “Colonies likely” value (Staphylococcus [4]; strain 8147, ethanol solvent, 2 times the MIC of tulathromycin) was “overgrown”. The “Colonies likely” value (Staphylococcus [4]; strain 8147, ethanol solvent, 4 times the MIC of tulathromycin) was “overgrown”.

For `Cc1ccc(C(C)C)cc1O` [carvacrol], the “lowest oral lethal dose” value [5] is given as 100 mg/kg and the “lowest oral lethal dose” value [6] is given as 100 mg/kg.

For `CC12CCC(CC1)C(C)(C)O2` [cineole, 1,8-cineole], the “Bacterial growth kinetics / bactericidal action (FIG. 1)” value (strain 13120 (E. coli)) was “increase the bactericidal action of tulathromycin”, the “Bacterial growth kinetics / number of bacteria (FIG. 2)” value [3] was “significantly decrease the number of bacteria” and the Development of mutants (Staphylococcus [4]; strain 8146, cineole added to tulathromycin, summary of Table 5) was “decreases the development of mutants”. For the same compound, the “MIC of cineole in the publication” value [7] was 8000 to 64000 µg/mL.
